Laboratory results published in patent publication US7973219B2, “Method for producing transgenic plants resistant to weed control compounds which disrupt the porphyrin pathways of plants” (Sumitomo Chemical Company, Limited, priority 1998, dated 2011).

Assays:
[1] = system: E. coli BT3/pACYCSP strain; assay: Growth of E. coli BT3/pACYCSP with herbicidal compound (absorbance at 600 nm); format: cell-based, Escherichia coli; settings: 18 hours culture, A600, medium without compound = 1, Table 1
From the text: (§1) According to the description of Gibson, L. C. D. et al., Proc. Natl. Acad. Sci. USA, 92; p 1941 (1995), the DNA fragment containing bchH gene prepared in Example 1 was digested with the restriction enzymes NdeI and BglII. The resultant DNA fragment was inserted between NdeI restriction site and BamHI restriction site of expression vector pET11a (manufactured by Stratagene) to obtain plasmid pETBCH (FIG. 1). This plasmid pETBCH was introduced into E. coli BL21(DE3) strain competent cells (manufactured by Stratagene) according to the manual attached to the competent cells to obtain E. coli BL21(DE3)/pETBCH strain. The strain was inoculated into 1.5 ml LB liquid culture medium (1% tryptone, 0.5% yeast extract, 0.5% NaCl) containing 100 μg/ml ampicillin in a tube (14×10 mm), and the tube was covered with aluminum foil (hereinafter referred to as dark conditions), cultured with shaking at 37° C. under light of fluorescent lamp (about 8000 lux). When the absorbance at 600 nm of the liquid culture medium became about 0.6, isopropyl β-D-thiogalactopyranoside (IPTG) was added to the liquid culture medium so that the final concentration was 0.4 mM, and the culture was continued for about additional 20 hours. […] In contrast to this, when E. coli BL21(DE3)/pETBCH strain was cultured according to the same manner (with IPTG) except that the tube was not covered with aluminum foil (hereinafter referred to as light conditions), E. coli grew and turned red as above.
The plasmid pSPPO-P was digested with restriction enzyme PshBI, the resultant DNA fragment was blunted by using T4 DNA polymerase and further digested with SphI to isolate the DNA fragment containing chloroplast-type PPO gene of soybean and lac promoter. Then, the plasmid pACYC184 (manufactured by Nippon Gene) was digested with the restriction enzymes NruI and SphI to remove a fragment of 410 bp and the above DNA fragment was inserted instead to obtain plasmid pACYCSP (FIG. 2). […]
E. coli BT3/pACYCSP strain prepared in Example 3 was inoculated into YPT medium containing 10 or 1 ppm of PPO inhibitory type herbicidal compound represented by the above Structure 8, 10 μg/ml hemin, 50 μg/ml aminolevulinic acid, 15 μg/ml chloramphenicol and 10 μg/ml kanamycin, cultured under dark conditions or light conditions according to the same manner as in Example 2. […] Then, 18 hours after initiation of culture, the absorbance of the liquid culture medium was measured at 600 nm. By taking the absorbance of the medium without the herbicidal compound as 1, the relative value of the absorbance of the medium containing the herbicidal compound was calculated.

[2] = system: E. coli BT3/pACYCSP+pCR2.1 strain; assay: Growth of E. coli BT3/pACYCSP+pCR2.1 (vector control) with herbicidal compound; format: cell-based, Escherichia coli; settings: 18 hours culture, Table 6
From the text: as §1
The plasmid pTCHLH1 and pCR2.1 prepared in Example 7 were introduced into E. coli BT3/pACYCSP strain prepared in Example 3, respectively according to the method described in Hanahan, D. J., Mol. Biol., 166; p 557 (1983). E. coli BT3/pACYCSP+pTCHLH1 strain bearing plasmids pACYCSP and pTCHLH1, and E. coli BT3/pACYCSP+pCR2.1 strain bearing plasmids pACYCSP and pCR2.1 were obtained by culturing the above strains in YPT medium containing 100 μg/ml ampicillin, 15 μg/ml chloramphenicol and 50 μg/ml kanamycin, respectively.
These E. coli strains were inoculated into YPT medium containing 10 or 1 ppm of the PPO inhibitory-type herbicidal compound represented by Structure 8, 100 μg/ml ampicillin, 15 μg/ml chloramphenicol, 50 μg/ml kanamycin, 10 μg/ml hemin and 50 μg/ml aminolevulinic acid, cultured under dark conditions or light conditions according to the same manner as in Example 2. Then, 18 hours after initiation of culture, the absorbance of the liquid culture medium was measured at 600 nm. By taking the absorbance of the medium without the herbicidal compound as 1, the relative value of the absorbance of the medium containing the herbicidal compound was calculated.

C#CCOc1cc(N2C(=O)C3=C(CCCC3)C2=O)c(F)cc1Cl [Structure 8]
Relative absorbance ([1]; in the dark, 1 ppm): 0.95 | Relative absorbance ([1]; in the dark, 10 ppm): 0.73 | Relative absorbance ([1]; in the light, 1 ppm): 0.25 | Relative absorbance ([1]; in the light, 10 ppm): 0.10 | Relative absorbance ([2]; in the dark, 1 ppm): 1.0 | Relative absorbance ([2]; in the dark, 10 ppm): 1.0 | Relative absorbance ([2]; in the light, 1 ppm): 0.08 | Relative absorbance ([2]; in the light, 10 ppm): 0.03
